The target of one series is hERG (Homo sapiens, UniProt Q12809). The series can be described thus: hERG liability (unpublished data). In general terms: Block of hERG is tested as a sign of cardiac risk.
In a further series the test system is PDAC PANC-1 cells. The series can be described thus: 96 h SRB growth inhibition assay, PANC-1. It counts as cell-based. Conditions: Homo sapiens. How it is done: (§1) Compounds were screened with a 96 h SRB (sulforhodamine B) assay for their antiproliferative activity in a panel of human cancer cell lines comprising lung adenocarcinoma (A549), breast adenocarcinoma (MCF7), and PDAC (MIA PaCa-2 and PANC-1) cell lines, as well as a fetal lung fibroblast-like nononcogenic control cell line (WI-38) (Figure 1f). […] Gemcitabine is also active in these lines at low nanomolar levels, although less so in MIA PaCa-2 (IC50 19 ± 5 nM) and more so in BX-PC3 cells (6 ± 2 nM).
(§2) All cell lines were purchased from ATCC and maintained in appropriate medium supplemented with 10% fetal bovine serum (Invitrogen, UK), 2 mM L-glutamine (Invitrogen, Netherlands), and other components as specified by the suppliers. Cell lines were maintained at 37 °C, 5% CO2, and routinely passaged. Drugs were dissolved in H2O and filtered through 0.22 μm pore-size filter units (stock 10 mM) before addition to appropriate cell line media. Cellular growth inhibition was measured using the sulforhodamine B (SRB) assay in 96-well plates as described previously.[78] The 50% inhibitory concentrations (IC50) were determined by taking the mean absorbance at 540 nm for each drug concentration expressed as a percentage of the absorbance of untreated control wells.

Series [1] relates to MIA PaCa-2 pancreatic tumor xenograft. The experiment in a line: Subcutaneous MIA PaCa-2 pancreatic tumor xenograft therapy study. The series is classed as in vivo. As to conditions: 15 mg/kg IV twice weekly for 28 days. How it is done: To determine if the in vitro activity of CM03 was paralleled in vivo, we explored the activity of CM03 in a mouse xenograft model of PDAC. We have previously reported that the maximum tolerated dosage (MTD) for intravenous (IV) administration of MM41 is 25 mg/kg.[33] CM03 was well tolerated, up to a dosage of 45–50 mg/kg, as judged by a dose-escalation MTD study. A therapeutic schedule of two CM03 intravenous (IV) doses was explored using a subcutaneous MIA PaCa-2 pancreatic tumor xenograft model derived from the human cell line used in the cell growth inhibition studies. A group size of eight CD-1 nude mice was used, and dosing was conducted at 10 and 15 mg/kg, each twice weekly, over a period of 4 weeks (28 days: 8 doses). Two further groups were given either MM41 or gemcitabine at 15 mg/kg and received the same dose regimen. […] IVIS imaging of treated mice was performed by taking account of the intrinsic fluorescence of CM03. […] Thus, in contrast to MM41 and gemcitabine, the higher-dose CM03 treatment results in a statistically significant (p < 0.001) antitumor effect, which persisted long after dosing had ceased, up to the termination of the xenograft experiment (62 days).
For therapy studies, female CD-1 nude mice (2–3 months old, weighing 20–25 g) were injected subcutaneously with 5 × 10^6 MIA PaCa-2 cells in the right flank (unsupplemented RPMI + Matrigel). When the tumors were established (approximately 13 days, mean size 0.05 cm^3), the mice were divided into five treatment groups with eight mice/group. The MM41 and CM03 samples were dissolved directly in saline to the required concentrations and administered IV. Tumor size was measured weekly by calliper using the π-based ellipsoid volume formula (length × width × height × π/6) every 3–4 days, and the mice were also weighed and examined at the same time to determine any signs of toxicity from the drug.
• Group 1:15 mg/kg of gemcitabine (Sigma), twice weekly dose. • Group 2:15 mg/kg of MM41, twice weekly dose. • Group 3:10 mg/kg of CM03, twice weekly dose. • Group 4:15 mg/kg of CM03, twice weekly dose. • Group 5: saline only, twice weekly dose.
The xenograft data was analyzed using Student’s t test (GraphPad Inc.). Responses were considered to be significant for those with probabilities (p) less than 5% (p < 0.05). Mice were culled if there was any sign of tumor ulceration, if tumor volume exceeded 1.5 cm^3, or if a weight loss over 20% of initial body weight was observed. Samples of liver, kidney, and spleen from each animal in the CM03 (15 mg/kg) and untreated control groups were excised at the end of the therapy experiment, then fixed in 10% neutral buffered formalin for at least 48 h prior to processing and paraffin embedding. Tissue slices were stained with hematoxylin and eosin and assessed visually for any obvious differences compared with controls, indicative of toxicity and tissue damage. For the imaging study mice were anesthetized using isoflurane and imaged using the IVIS preclinical imaging system from PerkinElmer. Images were captured after 4 h following intravenous administration of CM03 using Cy5.5 excitation for 5 s.

Series [2] shares this test system. Further details: method as in PMID 26077929. Conditions: cited from earlier work.
The test system of series [3] is breast adenocarcinoma (MCF7). The experiment in a line: 96 h SRB growth inhibition assay, MCF7. The series is classed as cell-based. As to conditions: Homo sapiens. How it is done:
as §1, §2

The nature of series [4]: Aqueous solubility and pH of the salt. As to conditions: formate salt. The series is classed as physicochemical. The text has this: The synthetic approach to the trisubstituted series adapts previously published procedures to simplify purification and increase yields of both intermediates and final compounds (Scheme 1). 5,5-Dimethyl-1,3-dibromohydantoin was used for the regioselective bromination of the starting material, enabling more efficient and convenient purification. The separation of final products was achieved using column chromatography, giving a 26% overall yield for CM03.
CM03 was then converted to a mixed hydrochloride/formate salt in order to enhance its aqueous solubility. At a concentration of 5 mg/mL, the pH of the CM03 salt solution was 6.95.

For series [5], the system named is fetal lung fibroblast-like nononcogenic control cell line (WI-38). The series can be described thus: 96 h SRB growth inhibition assay, WI-38. It counts as cell-based, human. As to conditions: Homo sapiens, WI-38; SMILES csv supplement; read-out: WI-30 IC50. How it is done:
as §1, §2

These results are taken from PMC5867665, “Targeting Multiple Effector Pathways in Pancreatic Ductal Adenocarcinoma with a G-Quadruplex-Binding Small Molecule” (Journal of Medicinal Chemistry, 2018).

hERG, sequence (Q12809 whole entry): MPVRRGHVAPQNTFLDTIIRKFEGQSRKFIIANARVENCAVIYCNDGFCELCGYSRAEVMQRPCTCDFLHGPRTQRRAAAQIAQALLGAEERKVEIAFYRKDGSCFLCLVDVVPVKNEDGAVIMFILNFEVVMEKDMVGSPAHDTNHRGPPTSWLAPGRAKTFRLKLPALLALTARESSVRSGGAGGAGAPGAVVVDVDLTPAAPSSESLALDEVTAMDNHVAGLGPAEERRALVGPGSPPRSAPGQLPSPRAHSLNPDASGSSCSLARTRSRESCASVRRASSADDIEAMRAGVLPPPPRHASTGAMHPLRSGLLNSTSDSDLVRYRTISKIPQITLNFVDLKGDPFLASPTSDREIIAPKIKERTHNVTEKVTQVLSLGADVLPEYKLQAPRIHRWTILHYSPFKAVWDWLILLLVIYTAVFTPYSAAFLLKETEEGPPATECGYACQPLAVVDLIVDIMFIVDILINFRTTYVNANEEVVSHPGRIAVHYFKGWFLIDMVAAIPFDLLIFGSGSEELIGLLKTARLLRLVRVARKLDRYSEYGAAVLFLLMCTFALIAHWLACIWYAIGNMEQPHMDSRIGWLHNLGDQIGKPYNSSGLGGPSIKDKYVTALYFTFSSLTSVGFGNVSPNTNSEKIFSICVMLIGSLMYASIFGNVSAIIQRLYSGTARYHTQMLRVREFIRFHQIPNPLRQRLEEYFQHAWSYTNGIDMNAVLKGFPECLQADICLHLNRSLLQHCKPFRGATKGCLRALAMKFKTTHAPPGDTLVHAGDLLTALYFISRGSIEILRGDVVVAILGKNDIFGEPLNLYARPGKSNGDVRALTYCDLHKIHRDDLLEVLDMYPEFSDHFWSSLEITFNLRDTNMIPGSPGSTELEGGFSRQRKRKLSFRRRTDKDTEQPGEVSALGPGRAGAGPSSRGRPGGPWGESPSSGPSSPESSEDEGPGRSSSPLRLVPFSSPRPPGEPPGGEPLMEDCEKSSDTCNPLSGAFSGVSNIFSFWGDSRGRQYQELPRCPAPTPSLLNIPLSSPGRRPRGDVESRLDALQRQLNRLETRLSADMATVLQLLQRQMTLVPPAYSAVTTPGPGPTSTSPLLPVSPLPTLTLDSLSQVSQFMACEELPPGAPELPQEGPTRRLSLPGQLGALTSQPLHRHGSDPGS

What is called IC50 is the concentration at which inhibition is half-maximal. In the case of `CN1CCN(CCCNc2cc3c4c(c(NCCCN5CCN(C)CC5)cc5c4c2C(=O)N(CCCN2CCOCC2)C5=O)C(=O)N(CCCN2CCOCC2)C3=O)CC1` [MM41, 4,9-bis((3-(4-methylpiperazin-1-yl)propyl)amino)-2,7-bis(3-morpholinopropyl)benzo[lmn][3,8]phenanthroline-1,3,6,8(2H,7H)-tetraone, reference compound], the hERG liabilities entry on hERG was “neither MM41 nor CM03 show significant hERG liabilities”. The IC50 was 3 ± 1 nM in the series on PDAC PANC-1 cells, 70 ± 10 nM in series [3] and 230 ± 50 nM in series [5]. Further, in series [1], the “MTV ± SEM (Day 29)” value worked out at 0.05 ± 0.02 cm^3. In series [1], the “MTV ± SEM (Day 62)” value was 0.26 ± 0.14 cm^3. Further, the “reduction of tumor volume in a PDAC xenograft model” value in series [2] is given as roughly 80%. Moreover, the water solubility entry in series [4] is recorded as “freely water-soluble”.
